Experimental data as given in paper PMC8355244, “A fragment-based approach identifies an allosteric pocket that impacts malate dehydrogenase activity” (Communications Biology, 2021).
Values joined by “and” are separate entries in the source; they are usually repeats but may differ in a detail not shown here. Identical values can stand only once. Like-named read-outs stand apart in the source and are kept apart here.

What was measured:
V190W PfMDH = target: T1, V190W PfMDH (Plasmodium falciparum, UniProt Q6VVP7, V190W); test: STD-NMR fragment screening, dimeric mutant; format: binding; details: 10 μM protein, 1 mM fragment
T1 construct: made in house; host or cells: E. coli (stated expressly only for the WT construct)
T1 sequence (Q6VVP7 whole entry V190W, the tested form may be a part): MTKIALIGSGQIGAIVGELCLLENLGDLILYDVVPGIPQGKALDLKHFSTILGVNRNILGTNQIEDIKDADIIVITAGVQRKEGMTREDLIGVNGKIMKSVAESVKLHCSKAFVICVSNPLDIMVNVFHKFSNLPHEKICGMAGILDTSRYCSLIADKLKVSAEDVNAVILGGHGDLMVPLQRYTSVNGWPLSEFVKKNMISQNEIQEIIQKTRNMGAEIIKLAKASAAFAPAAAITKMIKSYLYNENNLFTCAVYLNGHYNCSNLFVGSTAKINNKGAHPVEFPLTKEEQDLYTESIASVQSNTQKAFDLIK
Method: (§1) NMR spectra were acquired on Bruker Avance III (600 MHz) spectrometer at 300 K, equipped with a triple resonance cryoprobe head and an automated SampleJet sample changer. The samples for STD experiments were prepared in 100 mM Na-phosphate pH 7.4, 400 mM NaCl and spectra were recorded in water with 1:100-fold excess of the fragment (dissolved in DMSO at 100 mM) in an additional 10% (v/v) D2O to provide a lock signal. Final protein and ligand concentrations were 10 μM and 1 mM, respectively. Selective saturation of the protein resonances (on resonance spectrum) was performed by irradiating at 0.5 ppm using a series of Eburp2.1000-shaped 90 pulses (50 ms, 1 ms delay between pulses) for a total saturation time of 2.0 s. For the reference spectrum (off-resonance), the samples were irradiated at −10 ppm. On- and off-resonance scans were subtracted using phase cycling. The fragment library screening was performed by testing 300 mixtures containing five fragments each initially. Mixtures that yielded positive STD signals were selected and deconvolved, i.e., fragments that formed “active” mixtures were tested separately. Spectra were analyzed with TopSpin® software, 4.0

PfMDH [1] = target: T2, PfMDH (Plasmodium falciparum, UniProt Q6VVP7); test: Thermal shift assay (TSA); format: binding; details: for TSA melting curve raw signal: triplicate columns; for TSA melting curve raw fluorescence signal: three replicate columns
T2 construct: The full-length WT PfMDH gene was cloned into pETM-13; made in house; host or cells: E. coli Rosetta 2 (DE3) pLysS
T2 sequence (Q6VVP7 entry or part of it): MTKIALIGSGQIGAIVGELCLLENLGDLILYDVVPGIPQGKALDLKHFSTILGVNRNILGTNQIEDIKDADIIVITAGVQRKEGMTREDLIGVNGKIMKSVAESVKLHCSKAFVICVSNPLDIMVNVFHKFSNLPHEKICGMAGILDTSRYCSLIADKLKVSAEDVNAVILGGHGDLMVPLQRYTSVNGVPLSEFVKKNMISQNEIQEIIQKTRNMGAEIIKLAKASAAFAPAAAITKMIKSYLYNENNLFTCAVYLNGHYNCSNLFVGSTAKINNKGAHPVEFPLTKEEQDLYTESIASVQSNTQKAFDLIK
In short: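 10 μM PfMDH with 1 mM compound in 100 mM Na–phosphate pH 7.4, 400 mM NaCl, 10× Sypro Orange; 1% DMSO controls. Melting inflection points taken as Tm; shifts >1 °C read as stabilization, negative shifts as destabilization.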

WT PfMDH [2] = target: T3, WT PfMDH (Plasmodium falciparum, UniProt Q6VVP7); test: Microscale thermophoresis (MST) binding to fluorescently labeled PfMDH
T3 construct: The full-length WT PfMDH gene was cloned into pETM-13; made in house; host or cells: E. coli Rosetta 2 (DE3) pLysS
T3 sequence (Q6VVP7 entry or part of it): as above
Method: A Nanotemper MonolithNT.115 instrument (Nano-temper Technologies, GmbH) was used to quantify ligand/protein interactions. Purified PfMDH was labeled using the Red-NHS Monolith Protein Labeling Kit according to the manufacturer’s protocol. All reactions were performed in 100 mM Na-phosphate buffer pH 7.4, 400 mM NaCl, 0.05% Tween-20 in standard capillaries (Nanotemper Technologies GmbH). The ligand was 2× fold diluted starting from 4 mM as the highest concentration; the final protein concentration was 50 nM. All samples were incubated with compounds for about 1 h at room temperature followed by centrifugation at 18,000 rpm (Eppendorf Centrifuge 5415R) before loading into capillaries. Measurement was performed in triplicate at 40% LED intensity and 40% MST power. The Kd model was employed to determine the binding constant using the software MO.Affinity Analysis v2.3 while data collection was performed with MO.Control 2 (Nano-temper Technologies, GmbH).

PfMDH [3] = target: T2, PfMDH; test: Kinetics experiment with varying L-malate, substrate inhibition model; format: biochemical
WT PfMDH [4] = target: T3, WT PfMDH; test: STD-NMR fragment screening, wild type; format: binding; details: 10 μM protein, 100-fold molar excess
Method: as §1

MDH = details: cited from earlier work
[5] = 3 h exposure to 5 μM; cited from earlier work

Structure (SMILES): Nc1nc(-c2ccc(F)c(F)c2)cs1 [4DT, 4-(3,4-difluorophenyl) thiazol-2-amine]
- STD-NMR binding (V190W PfMDH): binds to dimeric V190W PfMDH
- ΔTm at 1000 µM (PfMDH [1]; 1 mM compound vs DMSO control): -2 ± 0.17 °C
- Tm (PfMDH [1]; 1 mM compound, 10 μM PfMDH, DMSO control Tm 58): 56 ± 0.17 °C
- TSA melting curve raw signal (PfMDH [1]; Temperature 25): 3306.061 and 3342.86 and 3324.801
- TSA melting curve raw signal (PfMDH [1]; Temperature 28.5): 3333.659 and 3382.548 and 3355.546
- TSA melting curve raw signal (PfMDH [1]; Temperature 29): 3336.65 and 3387.196 and 3360.105
- TSA melting curve raw signal (PfMDH [1]; Temperature 29.5): 3339.189 and 3391.098 and 3364.015
- TSA melting curve raw signal (PfMDH [1]; Temperature 30): 3341.416 and 3393.698 and 3368
- TSA melting curve raw signal (PfMDH [1]; Temperature 30.5): 3342.684 and 3395.106 and 3371.797
- TSA melting curve raw signal (PfMDH [1]; Temperature 31): 3343.918 and 3395.986 and 3375.352
- TSA melting curve raw signal (PfMDH [1]; Temperature 31.5): 3345.279 and 3397.252 and 3379.023
- TSA melting curve raw signal (PfMDH [1]; Temperature 32): 3347.139 and 3398.82 and 3383.605
- TSA melting curve raw signal (PfMDH [1]; Temperature 32.5): 3348.867 and 3401.838 and 3388.573
- TSA melting curve raw signal (PfMDH [1]; Temperature 33): 3351.566 and 3406.371 and 3394.323
- TSA melting curve raw signal (PfMDH [1]; Temperature 33.5): 3355.148 and 3412.286 and 3401.055
- TSA melting curve raw signal (PfMDH [1]; Temperature 34): 3359.354 and 3419.075 and 3408.698
- TSA melting curve raw signal (PfMDH [1]; Temperature 34.5): 3364.345 and 3426.84 and 3417.169
- TSA melting curve raw signal (PfMDH [1]; Temperature 35): 3370.925 and 3434.905 and 3426.749
- TSA melting curve raw signal (PfMDH [1]; Temperature 35.5): 3378.766 and 3443.449 and 3437.428
- TSA melting curve raw signal (PfMDH [1]; Temperature 36): 3388.116 and 3452.416 and 3449.193
- TSA melting curve raw signal (PfMDH [1]; Temperature 36.5): 3399.139 and 3461.927 and 3462.335
- TSA melting curve raw signal (PfMDH [1]; Temperature 37): 3411.581 and 3472.191 and 3477.03
- TSA melting curve raw signal (PfMDH [1]; Temperature 37.5): 3425.633 and 3483.607 and 3493.418
- TSA melting curve raw signal (PfMDH [1]; Temperature 38): 3441.177 and 3496.044 and 3511.6
- TSA melting curve raw signal (PfMDH [1]; Temperature 38.5): 3458.245 and 3509.831 and 3531.909
- TSA melting curve raw signal (PfMDH [1]; Temperature 39): 3477.439 and 3525.778 and 3554.709
- TSA melting curve raw signal (PfMDH [1]; Temperature 39.5): 3498.925 and 3543.752 and 3579.893
- TSA melting curve raw signal (PfMDH [1]; Temperature 40): 3522.761 and 3563.858 and 3607.657
- TSA melting curve raw signal (PfMDH [1]; Temperature 40.5): 3549.068 and 3586.405 and 3638.198
- TSA melting curve raw signal (PfMDH [1]; Temperature 41): 3578.181 and 3611.326 and 3671.73
- TSA melting curve raw signal (PfMDH [1]; Temperature 41.5): 3609.957 and 3638.555 and 3708.036
- TSA melting curve raw signal (PfMDH [1]; Temperature 42): 3645.082 and 3668.877 and 3747.413
- TSA melting curve raw signal (PfMDH [1]; Temperature 42.5): 3683.644 and 3702.365 and 3790.395
- TSA melting curve raw signal (PfMDH [1]; Temperature 43): 3726.411 and 3739.617 and 3837.462
- TSA melting curve raw signal (PfMDH [1]; Temperature 43.5): 3773.558 and 3781.332 and 3888.754
- TSA melting curve raw signal (PfMDH [1]; Temperature 44): 3825.615 and 3827.686 and 3944.903
- TSA melting curve raw signal (PfMDH [1]; Temperature 44.5): 3882.684
- TSA melting curve raw fluorescence signal (PfMDH [1]; Temperature 73.5): 7306.372 and 7609.03 and 7435.601
- TSA melting curve raw fluorescence signal (PfMDH [1]; Temperature 74): 7252.808 and 7555.848 and 7383.062
- TSA melting curve raw fluorescence signal (PfMDH [1]; Temperature 74.5): 7199.861 and 7502.703 and 7330.716
- TSA melting curve raw fluorescence signal (PfMDH [1]; Temperature 75): 7147.275 and 7449.479 and 7278.535
- TSA melting curve raw fluorescence signal (PfMDH [1]; Temperature 75.5): 7094.934 and 7396.013 and 7226.157
- TSA melting curve raw fluorescence signal (PfMDH [1]; Temperature 76): 7042.814 and 7342.543 and 7173.967
- TSA melting curve raw fluorescence signal (PfMDH [1]; Temperature 76.5): 6991.326 and 7288.895 and 7121.791
- TSA melting curve raw fluorescence signal (PfMDH [1]; Temperature 77): 6939.998 and 7235.077 and 7069.532
- TSA melting curve raw fluorescence signal (PfMDH [1]; Temperature 77.5): 6888.609 and 7181.445 and 7017.268
- TSA melting curve raw fluorescence signal (PfMDH [1]; Temperature 78): 6837.679 and 7128.499 and 6965.286
- TSA melting curve raw fluorescence signal (PfMDH [1]; Temperature 78.5): 6786.806 and 7075.655 and 6913.558
- TSA melting curve raw fluorescence signal (PfMDH [1]; Temperature 79): 6735.738 and 7023.249 and 6861.909
- TSA melting curve raw fluorescence signal (PfMDH [1]; Temperature 79.5): 6684.496 and 6971.241 and 6810.337
- TSA melting curve raw fluorescence signal (PfMDH [1]; Temperature 80): 6633.443 and 6919.222 and 6759.175
- TSA melting curve raw fluorescence signal (PfMDH [1]; Temperature 80.5): 6581.916 and 6866.533 and 6708.294
- TSA melting curve raw fluorescence signal (PfMDH [1]; Temperature 81): 6530.578 and 6813.96 and 6657.201
- TSA melting curve raw fluorescence signal (PfMDH [1]; Temperature 81.5): 6479.57 and 6761.335 and 6606.519
- TSA melting curve raw fluorescence signal (PfMDH [1]; Temperature 82): 6428.761 and 6708.745 and 6556.435
- TSA melting curve raw fluorescence signal (PfMDH [1]; Temperature 82.5): 6378.066 and 6656.727 and 6506.333
- TSA melting curve raw fluorescence signal (PfMDH [1]; Temperature 83): 6327.701 and 6605.378 and 6456.007
- TSA melting curve raw fluorescence signal (PfMDH [1]; Temperature 83.5): 6277.373 and 6554.37 and 6405.813
- TSA melting curve raw fluorescence signal (PfMDH [1]; Temperature 84): 6227.075 and 6503.782 and 6355.543
- TSA melting curve raw fluorescence signal (PfMDH [1]; Temperature 84.5): 6177.058 and 6453.083 and 6304.863
- TSA melting curve raw fluorescence signal (PfMDH [1]; Temperature 85): 6127.333 and 6402.172 and 6253.833
- TSA melting curve raw fluorescence signal (PfMDH [1]; Temperature 85.5): 6077.95 and 6351.179 and 6202.991
- TSA melting curve raw fluorescence signal (PfMDH [1]; Temperature 86): 6029.103 and 6299.937 and 6152.723
- TSA melting curve raw fluorescence signal (PfMDH [1]; Temperature 86.5): 5980.562 and 6248.441 and 6102.328
- TSA melting curve raw fluorescence signal (PfMDH [1]; Temperature 87): 5932.235 and 6197.461 and 6052.601
- TSA melting curve raw fluorescence signal (PfMDH [1]; Temperature 87.5): 5883.708 and 6146.127 and 6003.152
- TSA melting curve raw fluorescence signal (PfMDH [1]; Temperature 88): 5834.776 and 6094.257 and 5953.457
- TSA melting curve raw fluorescence signal (PfMDH [1]; Temperature 88.5): 5785.039 and 6042.085 and 5903.221
- TSA melting curve raw fluorescence signal (PfMDH [1]; Temperature 89): 5734.759 and 5989.63 and 5852.78
- TSA melting curve raw fluorescence signal (PfMDH [1]; Temperature 89.5): 5684.264 and 5936.616 and 5801.633
- TSA melting curve raw fluorescence signal (PfMDH [1]; Temperature 90): 5633.721
- Kd (WT PfMDH [2]; MST report, target 50 nM, 25.1°C, n 3, Kd Confidence ± 1.7444E-05, read-out: Kd (MST report)): 99 µM
- Kd (WT PfMDH [2]; MST, 50 nM labeled WT PfMDH, ligand 240 nM to 4 mM, read-out: Kd): 99 ± 1.7 µM
- Ki (substrate inhibition constant of malate) (PfMDH [3]; in the presence of 63 μM compound, control 12.5 ± 4.2): 63000 ± 31800 µM
- Ki (substrate inhibition constant of malate) (PfMDH [3]; in the presence of 125 μM compound): 72900 ± 41900 µM
- STD-NMR binding (WT PfMDH [4]): could not be seen to bind

Structure (SMILES): O=C1NCc2c1c1c3ccccc3[nH]c1c1[nH]c3ccccc3c21 [staurosporine aglycone]
- IC50 (MDH): 8 µM
- decrease in cell viability [5]: 80%
